The subject of assay [1] is D614G spike-pseudotyped virus. The class given is cell-based, SARS-CoV-2.
In assay [2] the test system is Omicron BA.1 spike-pseudotyped virus. As to the kind of experiment: microbe, parasite or virus in culture. The class given is cell-based, SARS-CoV-2.
The mark [3] stands for this setting: 293T-ACE2 cells, 3 days, luciferase reporter, mean ± SD of three tests, Inactive = CC50/IC50 ratio < 5.

Twelve compounds from article PMC9455918, “Quinolizidines as Novel SARS-CoV-2 Entry Inhibitors” (International Journal of Molecular Sciences, 2022) can be followed below.

Values joined by “and” are separate entries in the source; they are usually repeats but may differ in a detail not shown here. Equal entries are not always repeated. Where two headings read alike, the source gives them in different places.

Compound `Fc1ccc(CNCCCCN2CCCC3=CC4CC(CN5CCCCC45)C32)cc1` (centres unmarked) [Compound 9] had an IC50 in assay [1] of 610 ± 180 nM.

For `C1=C2CCCN(CCCCCNCc3ccccc3)C2C2CC1C1CCCCN1C2` (centres unmarked) [Compound 4], in assay [1], the IC50 is 860 ± 1500 nM. Moreover, the “IC50, D614G spike-pseudotyped virus” value in assay [1] (setting [3]) is “sub-µM potency”.

With `C1=C2CCCN[C@H]2[C@@H]2C[C@H]1[C@H]1CCCCN1C2` [Aloperine, aloperine, reference compound], the half-inhibitory concentration (IC50) in assay [1] was found to be 11500 ± 2300 nM.

Turning to `C1=C2CCCN(CCCCNCc3ccccc3)C2C2CC1C1CCCCN1C2` (centres unmarked) [Compound 5], in assay [1], the “Fold more potent than aloperine against D614G spike-pseudotyped virus” value is reported as “approximately 22 fold”; the “Fold more potent than chloroquine against D614G spike-pseudotyped virus” value was approximately 5 fold; the IC50 was 500 nM and 530 nM. Moreover, the “IC50, D614G spike-pseudotyped virus” value in assay [1] (setting [3]) is “sub-µM potency”. Moreover, the “Fold less sensitive, Omicron variants” value in assay [2] is “approximately 1.5 fold”. The half-maximal inhibitory concentration (IC50) in assay [2] (Severe acute respiratory syndrome coronavirus 2, 293T/ACE2, read-out: IC50, Omicron BA.1 spike-pseudotyped virus) amounted to 760 ± 220 nM.

As for `CCOC(=O)[C@H]1O[C@@H]1C(=O)N[C@@H](CC(C)C)C(=O)NCCC(C)C` [Compound E64D, E64D, reference compound], the half-maximal inhibitory concentration (IC50) is 480 ± 110 nM in assay [1] (setting [3]) and 360 ± 76 nM in assay [2] (read-out: IC50, Omicron BA.1 spike-pseudotyped virus).

With `O=C(NCCN1CCCC2=CC3CC(CN4CCCCC34)C21)c1ccccc1F` (centres unmarked) [Compound 2], in assay [1], the “IC50, D614G spike-pseudotyped virus” value is reported as “Inactive ^8”.

`O=C(Cc1ccc(S(=O)(=O)C(F)(F)F)cc1)NCCCCN1CCCC2=CC3CC(CN4CCCCC34)C21` (centres unmarked) [Compound 3]: inhibition in assay [1] was half-maximal at 3800 ± 680 nM (IC50).

In assay [1], `O=C(NCCCCCCCC(=O)N1CCCC2=CC3CC(CN4CCCCC34)C21)c1ccc(OC(F)(F)F)cc1` (centres unmarked) [Compound 8] yielded a half-inhibitory concentration (IC50) of 17500 ± 2300 nM. In addition, the “IC50, D614G spike-pseudotyped virus” value in assay [1] (setting [3]) is “weak inhibitor”.

In assay [1], `CCN(CC)CCCC(C)Nc1ccnc2cc(Cl)ccc12` (centres unmarked) [Chloroquine diphosphate, reference compound] had a concentration for half-maximal inhibition (IC50) of 2300 ± 3600 nM.

In turn, `COc1ccc(C(=O)NCCCCN2CCCC3=CC4CC(CN5CCCCC45)C32)cc1` (centres unmarked) [Compound 6] had an IC50 in assay [1] of 11900 ± 2100 nM.

`CC(C)(C)c1ccc(C(=O)NCCCCCCN2CCCC3=CC4CC(CN5CCCCC45)C32)cc1` (centres unmarked) [Compound 7] yielded an IC50 in assay [1] of 3700 ± 870 nM.

On to `O=C(NCCCCCCN1CCCC2CC3CC(CN4CCCCC34)C21)c1c(F)cc(Br)cc1F` (centres unmarked) [Compound 1], for which the half-maximal inhibitory concentration (IC50) in assay [1] was 4700 ± 760 nM.
